Columns and labels:
Assay type in all cases: in vivo
[1] = system: barnyardgrass; assay: Test Example 1: herbicidal effects in preemergence treatment under submerged conditions; conditions: dose 2.52 g/a
Summary of the method: (§1)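 Score 0–5 by mortality (5: ≥90%; 0: <5%), read 3 weeks post-application. Paddy-type cups: alluvial soil under 4 cm water, weeds seeded plus transplanted 2.5-leaf rice; diluted EC dosed onto water surface same day as sowing, g/a basis; greenhouse 25 to 30° C.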

[2] = system: bulrush; assay: as above; conditions: dose 2.52 g/a
Summary of the method: as §1

[3] = system: ducksalad; assay: as above; conditions: dose 2.52 g/a
Summary of the method: as §1

[4] = system: transplanted rice; assay: Test Example 1: preemergence treatment under submerged conditions, effect on crop; conditions: dose 2.52 g/a
Summary of the method: as §1

[5] = system: barnyardgrass; assay: Test Example 2: herbicidal effects during the vegetation period under submerged conditions; conditions: treatment during the vegetation period under submerged conditions; dose 2.52 g/a
Summary of the method: (§2)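 Barnyardgrass, bulrush and ducksalad were co-sown in alluvial soil flooded to 4 cm and grown in a greenhouse at 25 to 30° C. At the 1- or 2-leaf stage, water-diluted emulsifiable concentrates went onto the water surface at set doses (g/a). Herbicidal effect was scored three weeks later on a graded scale.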

[6] = system: bulrush; assay: as above; conditions: treatment during the vegetation period under submerged conditions; dose 2.52 g/a
Summary of the method: as §2

[7] = system: ducksalad; assay: as above; conditions: treatment during the vegetation period under submerged conditions; dose 2.52 g/a
Summary of the method: as §2

[8] = system: Italian ryegrass; assay: Test Example 3: herbicidal effects in soil treatment
Summary of the method: (§3)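 Seeds were sown in sterilized diluvial soil and covered with about 1.5 cm of soil. Compounds, formulated as emulsifiable concentrates and diluted with water, were sprayed evenly over the soil surface at set doses in g/a. Herbicidal effect was scored on a rating scale three weeks later.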

[9] = system: barnyardgrass; assay: as above
Summary of the method: as §3

[10] = system: common chickweed; assay: as above
Summary of the method: as §3

[11] = system: common lambsquater; assay: as above
Summary of the method: as §3

[12] = system: common ragweed; assay: as above
Summary of the method: as §3

[13] = system: giant foxtail; assay: as above
Summary of the method: as §3

[14] = system: large crabgrass; assay: as above
Summary of the method: as §3

[15] = system: posumbu knotweed; assay: as above
Summary of the method: as §3

[16] = system: redroot pigweed; assay: as above
Summary of the method: as §3

[17] = system: velvetleaf; assay: as above
Summary of the method: as §3

[18] = system: water foxtail; assay: as above
Summary of the method: as §3

[19] = system: wild oat; assay: as above
Summary of the method: as §3

[20] = system: Italian ryegrass; assay: Test Example 4: herbicidal effect in foliage treatment
Summary of the method: (§4)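 Weeds and crops sown in sterilized diluvial soil under ~1.5 cm cover and grown in greenhouse at 25 to 30° C. At 14 days, water-diluted emulsifiable concentrate sprayed onto foliage at set doses (g/a); herbicidal effect scored on a rating scale three weeks after application.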

[21] = system: barnyardgrass; assay: as above
Summary of the method: as §4

[22] = system: beadstraw; assay: as above
Summary of the method: as §4

[23] = system: common chickweed; assay: as above
Summary of the method: as §4

[24] = system: common lambsquater; assay: as above
Summary of the method: as §4

[25] = system: common ragweed; assay: as above
Summary of the method: as §4

[26] = system: giant foxtail; assay: as above
Summary of the method: as §4

[27] = system: large crabgrass; assay: as above
Summary of the method: as §4

[28] = system: posumbu knotweed; assay: as above
Summary of the method: as §4

[29] = system: redroot pigweed; assay: as above
Summary of the method: as §4

[30] = system: velvetleaf; assay: as above
Summary of the method: as §4

[31] = system: water foxtail; assay: as above
Summary of the method: as §4

[32] = system: wild oat; assay: as above
Summary of the method: as §4

[33] = dose 3.2 g/a, three weeks after the application
[34] = dose 6.3 g/a, three weeks after application

CCN1COCN(Cc2ccccc2N(C(=O)OCC(C)C)S(=O)(=O)C(F)(F)F)C1=O [IV-8]
A: barnyardgrass, herbicidal effect (evaluation scale 0-5) [1]: 5 (mortality of 90% or above (nearly complete death)) | B: bulrush, herbicidal effect (evaluation scale 0-5) [2]: 5 (mortality of 90% or above (nearly complete death)) | C: ducksalad, herbicidal effect (evaluation scale 0-5) [3]: 4 (mortality of at least 70% and less than 90%) | a: transplanted rice, effect on crop (evaluation scale 0-5) [4]: 0 (mortality of less than 5% (almost ineffective)) | A: barnyardgrass, herbicidal effect (evaluation scale 0-5) [5]: 5 (mortality of 90% or above (nearly complete death)) | B: bulrush, herbicidal effect (evaluation scale 0-5) [6]: 5 (mortality of 90% or above (nearly complete death)) | C: ducksalad, herbicidal effect (evaluation scale 0-5) [7]: 4 (mortality of at least 70% and less than 90%) | herbicidal effect, H: Italian ryegrass ([8]; dose 3.2 g/a): 0 (mortality of less than 5% (almost ineffective)) | herbicidal effect, A: barnyardgrass ([9]; dose 3.2 g/a): 4 (mortality of at least 70% and less than 90%) | herbicidal effect, N: common chickweed ([10]; dose 3.2 g/a): 0 (mortality of less than 5% (almost ineffective)) | herbicidal effect, L: common lambsquater ([11]; dose 3.2 g/a): 0 (mortality of less than 5% (almost ineffective)) | herbicidal effect, J: common ragweed ([12]; dose 3.2 g/a): 0 (mortality of less than 5% (almost ineffective)) | herbicidal effect, E: giant foxtail ([13]; dose 3.2 g/a): 1 (mortality of at least 5% and less than 20%) | herbicidal effect, D: large crabgrass ([14]; dose 3.2 g/a): 1 (mortality of at least 5% and less than 20%) | herbicidal effect, M: posumbu knotweed ([15]; dose 3.2 g/a): 0 (mortality of less than 5% (almost ineffective)) | herbicidal effect, K: redroot pigweed ([16]; dose 3.2 g/a): 0 (mortality of less than 5% (almost ineffective)) | herbicidal effect, I: velvetleaf ([17]; dose 3.2 g/a): 0 (mortality of less than 5% (almost ineffective)) | herbicidal effect, G: water foxtail ([18]; dose 3.2 g/a): 5 (mortality of 90% or above (nearly complete death)) | herbicidal effect, F: wild oat ([19]; dose 3.2 g/a): 0 (mortality of less than 5% (almost ineffective)) | H: Italian ryegrass, herbicidal effect [20, 33]: 0 (mortality of less than 5% (almost ineffective)) | A: barnyardgrass, herbicidal effect [21, 33]: 5 (mortality of 90% or above (nearly complete death)) | O: beadstraw, herbicidal effect [22, 33]: 3 (mortality of at least 40% and less than 70%) | N: common chickweed, herbicidal effect [23, 33]: 3 (mortality of at least 40% and less than 70%) | L: common lambsquater, herbicidal effect [24, 33]: 0 (mortality of less than 5% (almost ineffective)) | J: common ragweed, herbicidal effect [25, 33]: 3 (mortality of at least 40% and less than 70%) | E: giant foxtail, herbicidal effect [26, 33]: 4 (mortality of at least 70% and less than 90%) | D: large crabgrass, herbicidal effect [27, 33]: 4 (mortality of at least 70% and less than 90%) | M: posumbu knotweed, herbicidal effect [28, 33]: 0 (mortality of less than 5% (almost ineffective)) | K: redroot pigweed, herbicidal effect [29, 33]: 0 (mortality of less than 5% (almost ineffective)) | I: velvetleaf, herbicidal effect [30, 33]: 3 (mortality of at least 40% and less than 70%) | G: water foxtail, herbicidal effect [31, 33]: 5 (mortality of 90% or above (nearly complete death)) | F: wild oat, herbicidal effect [32, 33]: 0 (mortality of less than 5% (almost ineffective))

CCOC(=O)N(c1ccccc1CN1COCCC1=O)S(=O)(=O)C(F)(F)F [II-2]
A: barnyardgrass, herbicidal effect (evaluation scale 0-5) [1]: 5 (mortality of 90% or above (nearly complete death)) | B: bulrush, herbicidal effect (evaluation scale 0-5) [2]: 5 (mortality of 90% or above (nearly complete death)) | C: ducksalad, herbicidal effect (evaluation scale 0-5) [3]: 5 (mortality of 90% or above (nearly complete death)) | a: transplanted rice, effect on crop (evaluation scale 0-5) [4]: 1 (mortality of at least 5% and less than 20%) | A: barnyardgrass, herbicidal effect (evaluation scale 0-5) [5]: 5 (mortality of 90% or above (nearly complete death)) | B: bulrush, herbicidal effect (evaluation scale 0-5) [6]: 5 (mortality of 90% or above (nearly complete death)) | C: ducksalad, herbicidal effect (evaluation scale 0-5) [7]: 4 (mortality of at least 70% and less than 90%) | H: Italian ryegrass, herbicidal effect (evaluation scale 0-5) ([8]; dose 6.3 g/a): 4 (mortality of at least 70% and less than 90%) | A: barnyardgrass, herbicidal effect (evaluation scale 0-5) ([9]; dose 6.3 g/a): 5 (mortality of 90% or above (nearly complete death)) | N: common chickweed, herbicidal effect (evaluation scale 0-5) ([10]; dose 6.3 g/a): 5 (mortality of 90% or above (nearly complete death)) | L: common lambsquater, herbicidal effect (evaluation scale 0-5) ([11]; dose 6.3 g/a): 5 (mortality of 90% or above (nearly complete death)) | J: common ragweed, herbicidal effect (evaluation scale 0-5) ([12]; dose 6.3 g/a): 5 (mortality of 90% or above (nearly complete death)) | E: giant foxtail, herbicidal effect (evaluation scale 0-5) ([13]; dose 6.3 g/a): 5 (mortality of 90% or above (nearly complete death)) | D: large crabgrass, herbicidal effect (evaluation scale 0-5) ([14]; dose 6.3 g/a): 5 (mortality of 90% or above (nearly complete death)) | M: posumbu knotweed, herbicidal effect (evaluation scale 0-5) ([15]; dose 6.3 g/a): 1 (mortality of at least 5% and less than 20%) | K: redroot pigweed, herbicidal effect (evaluation scale 0-5) ([16]; dose 6.3 g/a): 0 (mortality of less than 5% (almost ineffective)) | I: velvetleaf, herbicidal effect (evaluation scale 0-5) ([17]; dose 6.3 g/a): 5 (mortality of 90% or above (nearly complete death)) | G: water foxtail, herbicidal effect (evaluation scale 0-5) ([18]; dose 6.3 g/a): 5 (mortality of 90% or above (nearly complete death)) | F: wild oat, herbicidal effect (evaluation scale 0-5) ([19]; dose 6.3 g/a): 0 (mortality of less than 5% (almost ineffective)) | H: Italian ryegrass, herbicidal effect [20, 34]: 4 (mortality of at least 70% and less than 90%) | A: barnyardgrass, herbicidal effect [21, 34]: 5 (mortality of 90% or above (nearly complete death)) | O: beadstraw, herbicidal effect [22, 34]: 4 (mortality of at least 70% and less than 90%) | N: common chickweed, herbicidal effect [23, 34]: 3 (mortality of at least 40% and less than 70%) | L: common lambsquater, herbicidal effect [24, 34]: 4 (mortality of at least 70% and less than 90%) | J: common ragweed, herbicidal effect [25, 34]: 4 (mortality of at least 70% and less than 90%) | E: giant foxtail, herbicidal effect [26, 34]: 5 (mortality of 90% or above (nearly complete death)) | D: large crabgrass, herbicidal effect [27, 34]: 5 (mortality of 90% or above (nearly complete death)) | M: posumbu knotweed, herbicidal effect [28, 34]: 3 (mortality of at least 40% and less than 70%) | K: redroot pigweed, herbicidal effect [29, 34]: 0 (mortality of less than 5% (almost ineffective)) | I: velvetleaf, herbicidal effect [30, 34]: 5 (mortality of 90% or above (nearly complete death)) | G: water foxtail, herbicidal effect [31, 34]: 5 (mortality of 90% or above (nearly complete death)) | F: wild oat, herbicidal effect [32, 34]: 0 (mortality of less than 5% (almost ineffective))

Reference: patent US20120029187A1, “HALOALKYLSULFONANILIDE DERIVATIVE” (Nissan Chemical Industries, Ltd., priority 2009, published 2012)
